Test in all cases: growth of human tumour cells (NCI), 48 h
In experiment [1] the test system is OVCAR-4.
For experiment [2], the system named is HCT-116.
Experiment [3] deals with MDA-N.
Experiment [4] relates to SF-268.
The subject of experiment [5] is K562.
The subject of experiment [6] is HCT-15.
Experiment [7] has as its system UO-31.
In experiment [8] the test system is EKVX.
The subject of experiment [9] is M14.
Experiment [10] has as its system MDA-MB-231.
Experiment [11] deals with NCI-H522.
Experiment [12] concerns Hs-578T.
For experiment [13], the system named is HOP-62.
The test system of experiment [14] is NCI-H460.
Experiment [15] concerns RXF 393.
Experiment [16] deals with NCI-H226.
Experiment [17] has as its system SNB-75.
Experiment [18] concerns 786-0.
The subject of experiment [19] is UACC-62.
In experiment [20] the test system is HOP-92.

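Method: 48-hour compound exposure of cells in 96-well plates, five concentrations, linear interpolation of endpoints. Here, GI50 denotes the concentration required for 50% inhibition of growth.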 Calls of active or inactive are those of the source. Rule as the data show it: active = GI50 up to about 1.1 µM and inactive = higher.

On to `CC(=O)O[C@@]12CO[C@@H]1C[C@@H](O)[C@@]1(C)C(=O)[C@H](O)C3=C(C)[C@@H](OC(=O)[C@H](O)[C@@H](NC(=O)c4ccccc4)c4ccccc4)C[C@@](O)([C@@H](OC(=O)c4ccccc4)C12)C3(C)C` (stereo partly specified), for which the GI50 is 24.7 µM (inactive) in experiment [1]; < 0.01 µM (active) in [2]; < 0.01 µM (active) in [3]; 0.0594 µM (active) in [4]; 0.0156 µM (active) in experiment [5]; 3.03 µM in experiment [6]. For the same compound, the GI50 in experiment [7] is 4.51 µM (inactive); in experiment [8] it was 4.81 µM (inactive); in experiment [9], 0.0363 µM (active); in experiment [10] it was 0.0408 µM (active); in experiment [11], < 0.0122 µM (active); in [12] it was < 0.01 µM (active). Besides, the GI50 in experiment [13] was 0.0893 µM (active); in [14], 0.0217 µM (active); in experiment [15], 0.222 µM (active); in [16] it was 17.4 µM (inactive); in [17] it was < 0.01 µM (active); in experiment [18], 0.0628 µM (active). The GI50 in [19] is < 0.01 µM (active).

As to `COC(=O)CCC1=NCC(C)(C)O1`, the GI50 in [1] was > 10 µM (inactive); in [2], > 10 µM (inactive); in experiment [3] it was > 10 µM (inactive); in experiment [4] it was > 10 µM (inactive); in [5], 0.182 µM (active); in experiment [6] it was more than 10 µM. In addition, the GI50 in experiment [7], in experiment [8], in [9], in [10], in experiment [11] and in [12] was > 10 µM (inactive) in each case. Besides, the GI50 is > 10 µM (inactive) in experiment [13]; > 10 µM (inactive) in experiment [14]; > 10 µM (inactive) in experiment [15]; > 10 µM (inactive) in experiment [16]; 2.79 µM (inactive) in [17]; > 10 µM (inactive) in experiment [18]. The GI50 in [19] is > 10 µM (inactive).

Consider `CC1C(O)Oc2cc3c(cc2C1c1ccccc1O)OCO3` (stereo unspecified), for which the GI50 in experiment [2] was 17.9 µM (inactive); in experiment [3] it was 30.5 µM (inactive); in [4] it was 36.1 µM (inactive); in experiment [5], 17.6 µM (inactive); in experiment [6] it was 33.1 µM; in experiment [7], 28.8 µM (inactive). The GI50 in experiment [8] is 43.6 µM (inactive); in experiment [20], 15.2 µM (inactive); in experiment [9] it was 30.5 µM (inactive); in experiment [10] it was 34.6 µM (inactive); in experiment [11], 17.1 µM (inactive); in [12] it was 11.5 µM (inactive). The GI50 in [13] is 65 µM (inactive); in experiment [14], 23.4 µM (inactive); in experiment [15], 14.3 µM (inactive); in experiment [16] it was 18.6 µM (inactive); in [17], 24.6 µM (inactive); in experiment [18], 39.4 µM (inactive). Besides, the GI50 in [19] is 29.5 µM (inactive).

In the case of `C[C@H](c1ccccc1)N1C(=O)[C@@H](OCc2ccccc2)[C@H]1[C@H](COC(=O)COCc1ccccc1)OCc1ccccc1`, the GI50 in experiment [2] was > 100 µM (inactive); in experiment [3], > 100 µM (inactive); in [4], > 100 µM (inactive); in [5] it was > 100 µM (inactive); in [6], more than 100 µM; in [7], 7.69 µM (inactive). Besides, the GI50 in experiment [8] was > 100 µM (inactive); in experiment [20] it was > 100 µM (inactive); in experiment [9] it was > 100 µM (inactive); in experiment [10], > 100 µM (inactive); in experiment [11], 86.9 µM (inactive); in experiment [12], 60.7 µM (inactive). Further, the GI50 is > 100 µM (inactive) in experiment [13]; 6.95 µM (inactive) in experiment [16]; 9.08 µM (inactive) in experiment [17]; > 100 µM (inactive) in [18]; > 100 µM (inactive) in experiment [19].

With `C/C(=C\COc1ccc2ccc(=O)oc2c1)C1=CC(=O)C(C)(C)O1` [GEIPARVARIN], the GI50 in [1] is 3.08 µM (inactive); in experiment [2], 2.22 µM (inactive); in [3] it was 3.28 µM (inactive); in experiment [4], 3.93 µM (inactive); in experiment [5] it was 4.39 µM (inactive); in experiment [6], 3.04 µM. Besides, the GI50 in [7] was 6.11 µM (inactive); in experiment [8] it was 5.64 µM (inactive); in experiment [20], 3.76 µM (inactive); in experiment [9] it was 4.04 µM (inactive); in [10], 5.18 µM (inactive); in [12], 2.51 µM (inactive). Moreover, the GI50 in [13] is 5.47 µM (inactive); in experiment [15], 2.01 µM (inactive); in experiment [16], 3.32 µM (inactive); in experiment [17] it was 5.01 µM (inactive); in experiment [18], 3.74 µM (inactive); in [19] it was 3.94 µM (inactive).

With `CSc1nc(C#N)c(/N=C\N(C)C)n1C`, the GI50 in experiment [1] was > 100 µM (inactive); in experiment [2], > 100 µM (inactive); in experiment [3], > 100 µM (inactive); in experiment [4] it was > 100 µM (inactive); in experiment [5], > 100 µM (inactive); in [6], more than 100 µM. For the same compound, the GI50 in experiment [7], in experiment [8], in experiment [20], in experiment [9], in experiment [10] and in experiment [11] was > 100 µM (inactive) each time. Also, the GI50 in [12], in experiment [13], in experiment [14], in [15], in experiment [16] and in experiment [18] was > 100 µM (inactive) in each case. The GI50 in experiment [19] was > 100 µM (inactive).

In the case of `CCN1C(=O)c2ccccc2C1(O)c1ccc(Cl)cc1` (stereo unspecified), the GI50 was > 100 µM (inactive) in experiment [1]; 37.7 µM (inactive) in experiment [2]; > 100 µM (inactive) in [3]; 79.8 µM (inactive) in [4]; > 100 µM (inactive) in [5]; more than 100 µM in experiment [6]. Moreover, the GI50 is 53.5 µM (inactive) in experiment [7]; 33.3 µM (inactive) in experiment [8]; > 100 µM (inactive) in experiment [20]; 59.4 µM (inactive) in experiment [9]; > 100 µM (inactive) in [10]; > 100 µM (inactive) in experiment [12]. Further, the GI50 in [13] was 78 µM (inactive); in [14], 89.7 µM (inactive); in experiment [16], 16.8 µM (inactive); in experiment [17], > 10 µM (inactive); in experiment [18], 76.9 µM (inactive); in [19], 79.1 µM (inactive).

Regarding `CCCNCC(O)CNc1ccc(NCC(O)CNCCC)c2c1C(=O)c1ccccc1C2=O` (stereo unspecified), the GI50 is 3.07 µM (inactive) in experiment [1]; 2.56 µM (inactive) in experiment [2]; 2.74 µM (inactive) in experiment [3]; 2.03 µM (inactive) in [4]; 2.14 µM (inactive) in experiment [5]; 43.9 µM in [6]. Also, the GI50 in [7] is 12.6 µM (inactive); in [8], 7.73 µM (inactive); in [20], 2.07 µM (inactive); in [9], 3.33 µM (inactive); in experiment [10] it was 2.98 µM (inactive); in [11] it was 1.21 µM (inactive). Also, the GI50 in experiment [12] was 3.61 µM (inactive); in experiment [13], 1.82 µM (inactive); in experiment [14], 2.42 µM (inactive); in [16] it was 2 µM (inactive); in experiment [17], 2.29 µM (inactive); in experiment [18] it was 2.03 µM (inactive). In addition, the GI50 in [19] is 1.9 µM (inactive).

On to `CC1(CNCc2ccccc2)CC(CCc2ccccc2)N(C(=O)c2ccc([N+](=O)[O-])cc2)C1Cc1ccc(O)cc1` (stereo unspecified), for which the GI50 in [1] was 9.91 µM (inactive); in [2] it was 10.4 µM (inactive); in experiment [3], 12.3 µM (inactive); in experiment [4], 13.4 µM (inactive); in experiment [5] it was 33.7 µM (inactive); in experiment [6], 12.6 µM. Besides, the GI50 in experiment [7] was 11.3 µM (inactive); in [8], 14.4 µM (inactive); in experiment [20] it was 2.04 µM (inactive); in experiment [9], 13.7 µM (inactive); in experiment [10], 10.3 µM (inactive); in [11], 8.79 µM (inactive). For the same compound, the GI50 is 13.5 µM (inactive) in experiment [12]; 15.8 µM (inactive) in experiment [13]; 14 µM (inactive) in experiment [14]; 5.04 µM (inactive) in experiment [15]; 9.93 µM (inactive) in experiment [16]; 11.8 µM (inactive) in [18]. In addition, the GI50 in experiment [19] was 13.1 µM (inactive).

`CSC1=N/C(=C\c2cccs2)C(=O)N1CN1CCOCC1`: the GI50 in experiment [1] was 30.6 µM (inactive); in experiment [2], 31.3 µM (inactive); in experiment [3], 59 µM (inactive); in experiment [4], 42.3 µM (inactive); in [5] it was 43.8 µM (inactive); in [6], 38.1 µM. Further, the GI50 in experiment [7] was 39.9 µM (inactive); in experiment [8] it was 40.6 µM (inactive); in experiment [20], 4.82 µM (inactive); in experiment [9], 61.7 µM (inactive); in experiment [10], 71.1 µM (inactive); in [11] it was 30.1 µM (inactive). In addition, the GI50 in experiment [12] is 51.6 µM (inactive); in experiment [13] it was 95.7 µM (inactive); in [16], 31.1 µM (inactive); in experiment [17] it was 37.5 µM (inactive); in experiment [18], 44.5 µM (inactive); in [19] it was 42.4 µM (inactive).

For the compound `COC(=O)CCC(=O)c1ccc2c(c1)CC1(Cc3ccccc3C1)C2`, the GI50 in experiment [1] was 32.1 µM (inactive); in [2] it was 28.3 µM (inactive); in experiment [3], 49.1 µM (inactive); in experiment [5] it was 0.218 µM (active); in experiment [7], 42.9 µM (inactive); in experiment [8], > 100 µM (inactive). The GI50 in [20] is 31.3 µM (inactive); in [9], > 100 µM (inactive); in [10], > 100 µM (inactive); in [11], 33.4 µM (inactive); in experiment [12] it was > 100 µM (inactive); in experiment [13] it was > 100 µM (inactive). The GI50 was > 100 µM (inactive) in [15], 24.7 µM (inactive) in experiment [16], 94.6 µM (inactive) in experiment [18] and > 100 µM (inactive) in experiment [19].

For the origin of these results see ChEMBL document CHEMBL1201862, “PubChem BioAssay data set” (2004).
